Where two headings read alike, the source gives them in different places.
Molecular target: DCN1 (DCUND1) protein PONY domain (Homo sapiens (Human), UniProt Q96GG9)
Assay: TR-FRET assay, DCN1 binding with FAM-labeled probe
Summary of the method: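 Binding was read as the TR-FRET ratio between a FAM-tagged inhibitor probe and Tb-labeled biotinylated E. coli-expressed DCN1 PONY domain, measured 1, 5 and 24 h after compound addition. The two setups used 5 nM protein/20 nM FAM-probe or 0.31 nM protein/900 nM total probe (100 nM labeled), in TritonX buffer with 200 mM NaCl.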

[1] = 24 hr after treatment with compound, read-out: TR FRET IC50 24 hr
[2] = TR FRET IC50 1 hr (nM), 1 hr after treatment with compound
[3] = read-out: TR FRET IC50 1 hr, 1 hr after treatment with compound

Sequence of DCN1 (DCUND1) protein PONY domain (Q96GG9 60-248): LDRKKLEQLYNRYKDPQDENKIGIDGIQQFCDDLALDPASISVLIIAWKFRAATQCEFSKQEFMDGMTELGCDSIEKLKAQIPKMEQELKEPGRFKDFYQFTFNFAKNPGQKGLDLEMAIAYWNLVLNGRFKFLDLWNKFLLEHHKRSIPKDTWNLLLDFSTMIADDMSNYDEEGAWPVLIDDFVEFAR

Structure (SMILES)	IC50 [1] [nM]	IC50 [2] [nM]	IC50 [3] [nM]
CCN1C(=O)[C@@H](NC(=O)c2ccc(F)c(F)c2OC)[C@@H](C2CC2)c2c(C(=O)N3[C@H](C#N)C[C@H]4C[C@H]43)nn(C3CCOCC3)c21 [Compound I-502]	200 to 1000	1000 to 3000	–
CCN1C(=O)[C@@H](NC(=O)CC2=C(C)Cc3ccc(F)cc32)[C@@H](C2CC2)c2c(C(=O)N3[C@H](C#N)C[C@H]4C[C@H]43)nn(C3CCOCC3)c21 [Compound I-504]	1000 to 3000	1000 to 3000	–
CCN1C(=O)[C@@H](NC(=O)c2cccc(N3CCCC3=O)c2)[C@@H](C2CC2)c2c(C(=O)N3[C@H](C#N)C[C@H]4C[C@H]43)nn(C3CCOCC3)c21 [Compound I-505]	1000 to 3000	1000 to 3000	–
CCN1C(=O)[C@@H](NC(=O)c2cnn(CC(F)(F)F)c2)[C@@H](C2CC2)c2c(C(=O)N3[C@H](C#N)C[C@H]4C[C@H]43)nn(C3CCOCC3)c21 [Compound I-507]	1000 to 3000	1000 to 3000	–
CCN1C(=O)[C@@H](NC(=O)c2ccc(C3CC3)cc2)[C@@H](C2CC2)c2c(C(=O)N3[C@H](C#N)C[C@H]4C[C@H]43)nn(C3CCOCC3)c21 [Compound I-508]	≤ 200	1000 to 3000	–
CCN1C(=O)[C@@H](NC(=O)CN2C(=O)CSc3ccccc32)[C@@H](C2CC2)c2c(C(=O)N3[C@H](C#N)C[C@H]4C[C@H]43)nn(C3CCOCC3)c21 [Compound I-510]	1000 to 3000	1000 to 3000	–
CCN1C(=O)[C@@H](NC(=O)Cc2ccc(C)cc2C)[C@@H](C2CC2)c2c(C(=O)N3[C@H](C#N)C[C@H]4C[C@H]43)nn(C3CCOCC3)c21 [Compound I-511]	1000 to 3000	1000 to 3000	–
CCN1C(=O)[C@@H](NC(=O)c2nc3c(s2)CN(C)CC3)[C@@H](C2CC2)c2c(C(=O)N3[C@H](C#N)C[C@H]4C[C@H]43)nn(C3CCOCC3)c21 [Compound I-512]	1000 to 3000	1000 to 3000	–
CCN1C(=O)[C@@H](NC(=O)c2cnc(C(F)(F)F)s2)[C@@H](C2CC2)c2c(C(=O)N3[C@H](C#N)C[C@H]4C[C@H]43)nn(C3CCOCC3)c21 [Compound I-513]	1000 to 3000	1000 to 3000	–
CCN1C(=O)[C@@H](NC(=O)C2CC2C(F)(F)F)[C@@H](C2CC2)c2c(C(=O)N3[C@H](C#N)C[C@H]4C[C@H]43)nn(C3CCOCC3)c21 (some centres unmarked) [Compound I-523]	1000 to 3000	1000 to 3000	–
CCN1C(=O)[C@@H](NC(=O)CS(C)(=O)=O)[C@@H](C2CC2)c2c(C(=O)N3[C@H](C#N)C[C@H]4C[C@H]43)nn(C3CCOCC3)c21 [Compound I-546]	1000 to 3000	1000 to 3000	–
CCN1C(=O)[C@@H](NC(=O)c2ccc3c(c2)CCO3)[C@@H](C2CC2)c2c(C(=O)N3[C@H](C#N)C[C@H]4C[C@H]43)nn(C3CCOCC3)c21 [Compound I-547]	≤ 200	200 to 1000	–
CCN1C(=O)[C@@H](NC(=O)c2ccccc2)[C@@H](C2CC2)c2c(C(=O)N3[C@H](C#N)C[C@H]4C[C@H]43)nn(C3CCOCC3)c21 [Compound I-553]	≤ 200	200 to 1000	–
CCN1C(=O)[C@@H](NC(=O)COc2ccc3c(c2)CCC3)[C@@H](C2CC2)c2c(C(=O)N3[C@H](C#N)C[C@H]4C[C@H]43)nn(C3CCOCC3)c21 [Compound I-554]	1000 to 3000	1000 to 3000	–
CCN1C(=O)[C@@H](NC(=O)CC#N)[C@@H](C2CC2)c2c(C(=O)N3[C@H](C#N)C[C@H]4C[C@H]43)nn(C3CCOCC3)c21 [Compound I-555]	1000 to 3000	1000 to 3000	–
CCN1C(=O)[C@@H](NC(=O)CCN2C(=O)COc3ccccc32)[C@@H](C2CC2)c2c(C(=O)N3[C@H](C#N)C[C@H]4C[C@H]43)nn(C3CCOCC3)c21 [Compound I-556]	1000 to 3000	1000 to 3000	–

Structure (SMILES)	IC50 [1] [nM]	IC50 [2] [nM]	IC50 [3] [nM]
CCN1C(=O)[C@@H](NC(=O)c2ccc(N3CCN(C)CC3)cn2)[C@@H](C2CC2)c2c(C(=O)N3[C@H](C#N)C[C@H]4C[C@H]43)nn(C3CCOCC3)c21 [Compound I-588]	1000 to 3000	1000 to 3000	–
CCN1C(=O)[C@@H](NC(=O)c2cncc(C(F)(F)F)n2)[C@@H](C2CC2)c2c(C(=O)N3[C@H](C#N)C[C@H]4C[C@H]43)nn(C3CCOCC3)c21 [Compound I-590]	1000 to 3000	1000 to 3000	–
CCN1C(=O)[C@@H](NC(=O)C2=NN(c3ccccc3)C(=O)C2)[C@@H](C2CC2)c2c(C(=O)N3[C@H](C#N)C[C@H]4C[C@H]43)nn(C3CCOCC3)c21 [Compound I-591]	1000 to 3000	1000 to 3000	–
CCN1C(=O)[C@@H](NC(=O)Cc2cccc(C(F)(F)F)c2)[C@@H](C2CC2)c2c(C(=O)N3[C@H](C#N)C[C@H]4C[C@H]43)nn(C3CCOCC3)c21 [Compound I-592]	1000 to 3000	1000 to 3000	–
CCN1C(=O)[C@@H](NC(=O)C2CCOc3ccccc32)[C@@H](C2CC2)c2c(C(=O)N3[C@H](C#N)C[C@H]4C[C@H]43)nn(C3CCOCC3)c21 (some centres unmarked) [Compound I-598]	1000 to 3000	1000 to 3000	–
CCN1C(=O)[C@@H](NC(=O)CC2CC(=O)c3ccc(OC)cc32)[C@@H](C2CC2)c2c(C(=O)N3[C@H](C#N)C[C@H]4C[C@H]43)nn(C3CCOCC3)c21 (some centres unmarked) [Compound I-618]	1000 to 3000	1000 to 3000	–
CCOc1ccc(C)c(C(=O)N[C@@H]2C(=O)N(CC)c3c(c(C(=O)N4[C@H](C#N)C[C@H]5C[C@H]54)nn3C3CCOCC3)[C@@H]2C2CC2)c1 [Compound I-620]	≤ 200	–	≤ 200
CCN1C(=O)[C@@H](NC(=O)c2cc(F)ccc2C(F)(F)F)[C@@H](C2CC2)c2c(C(=O)N3[C@H](C#N)C[C@H]4C[C@H]43)nn(C3CCOCC3)c21 [Compound I-623]	1000 to 3000	1000 to 3000	–
CCN1C(=O)[C@@H](NC(=O)c2ccc(C)c(C(F)(F)F)c2)[C@@H](C2CC2)c2c(C(=O)N3[C@H](C#N)C[C@H]4C[C@H]43)nn(C3CCOCC3)c21 [Compound I-627]	≤ 200	–	≤ 200
CCN1C(=O)[C@@H](NC(=O)C2CCC(F)(F)CC2)[C@@H](C2CC2)c2c(C(=O)N3[C@H](C#N)C[C@H]4C[C@H]43)nn(C3CCOCC3)c21 [Compound I-652]	1000 to 3000	1000 to 3000	–
CCN1C(=O)[C@@H](NC(=O)c2ccc(C3CCN(C)CC3)cc2)[C@@H](C2CC2)c2c(C(=O)N3[C@H](C#N)C[C@H]4C[C@H]43)nn(C3CCOCC3)c21 [Compound I-653]	1000 to 3000	1000 to 3000	–
CCN1C(=O)[C@@H](NC(=O)C2CC(C)C2)[C@@H](C2CC2)c2c(C(=O)N3[C@H](C#N)C[C@H]4C[C@H]43)nn(C3CCOCC3)c21 (some centres unmarked) [Compound I-655]	1000 to 3000	1000 to 3000	–
CCN1C(=O)[C@@H](NC(=O)CC2CCCc3ccccc32)[C@@H](C2CC2)c2c(C(=O)N3[C@H](C#N)C[C@H]4C[C@H]43)nn(C3CCOCC3)c21 (some centres unmarked) [Compound I-663]	1000 to 3000	1000 to 3000	–
CCN1C(=O)[C@@H](NC(=O)c2ccn(C(C)(C)C)n2)[C@@H](C2CC2)c2c(C(=O)N3[C@H](C#N)C[C@H]4C[C@H]43)nn(C3CCOCC3)c21 [Compound I-688]	≤ 200	200 to 1000	–
CCN1C(=O)[C@@H](NC(=O)c2cccc(F)c2)[C@@H](C2CC2)c2c(C(=O)N3[C@H](C#N)C[C@H]4C[C@H]43)nn(C3CCOCC3)c21 [Compound I-690]	≤ 200	200 to 1000	–

— patent US20250163057A1, “DCN-1 MODULATING COMPOUNDS AND METHODS OF USE THEREOF” (Cellarity, Inc., priority 2023, published 2025)
